From patent publication US11905284B2, “5,7-dihydro-pyrrolo-pyridine derivatives” (PFIZER INC., priority 2016, dated 2024) come the findings set out here.

Bounds are passed on as bounds.

This assay addresses T1, Human M4 receptors (Homo sapiens, UniProt P08173).
T1 construct: expressed in transfected cells; host or cells: HEK293 cells with Promega GloSensor cAMP technology, stably expressing hM4
T1 sequence (P08173 1-479): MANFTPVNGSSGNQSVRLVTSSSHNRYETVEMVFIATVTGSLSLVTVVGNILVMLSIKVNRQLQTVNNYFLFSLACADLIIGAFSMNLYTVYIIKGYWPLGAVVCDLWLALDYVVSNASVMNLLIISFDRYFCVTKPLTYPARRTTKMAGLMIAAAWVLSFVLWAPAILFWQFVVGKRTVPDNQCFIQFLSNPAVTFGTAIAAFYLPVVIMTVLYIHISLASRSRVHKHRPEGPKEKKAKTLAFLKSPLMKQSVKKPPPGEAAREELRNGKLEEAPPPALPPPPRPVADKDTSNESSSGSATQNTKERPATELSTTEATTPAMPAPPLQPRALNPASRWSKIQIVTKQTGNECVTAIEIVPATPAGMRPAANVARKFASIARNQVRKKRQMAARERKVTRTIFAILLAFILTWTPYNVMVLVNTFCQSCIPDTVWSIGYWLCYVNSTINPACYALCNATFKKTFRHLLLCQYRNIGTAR
As to the kind of experiment: M4 PAM cAMP assay (GloSensor). In kind it is cell-based. The settings on record: for Emax: HEK293, read-out: M4 glosensor EC50 Mean Asymptote Maximum (%); for EC50 / M4 glosensor EC50 Mean Asymptote Maximum (%): HEK293 GloSensor cells expressing hM4, with EC20 acetylcholine and isoproterenol, geometric mean of 2-4 determinations unless otherwise indicated; for M4 glosensor EC50 Mean Asymptote Maximum (%): Emax = maximum asymptote of fitted dose response curve. As for the experimental part: The M4 PAM binding affinity for the compounds of the present invention was determined utilizing the following biological assay(s):
The M4 cAMP assay was designed to determine the potency and efficacy of muscarinic positive allosteric modulators (PAMs). Human M4 receptors were stably expressed in Human embryonic kidney (HEK293) cells expressed with the Promega GloSensor™ cAMP technology.
HEK293 GloSensor cells expressing hM4 cells were cultured in growth media containing DMEM with 10% FBS, 1% Penicillin/Streptomycin, 500 μg/mL G418, 200 μg/mL Hygomycin B, and 1% Glutamax. […] Plates were incubated at 37 degrees C. and 5% CO2 for use after 24 hours.
Compound Preparation for Agonist Screen:
Each compound was tested at 10 concentrations in duplicate per experiment. Compound plates are spotted with 0.2 μL/well agonist at 400 times the final assay concentration. Positive and negative controls for the compound alone agonist response was 10 μM acetylcholine (Sigma #A2661) and DMSO, respectively. EC20 of acetylcholine was also used to define PAM activities.
Promega GloSensor™ reagent (Promega #E1291) had previously been aliquotted. […] Stock solution was mixed. Culture media in cell plates was discarded, then replaced with 40 μL/well pre-warmed equilibration media, then incubated in the dark at room temperature for 2 hours. During the incubation, stimulation media containing agonist and EC20 acetylcholine was prepared. […] Compounds are now 5 times the final assay concentration. The plate was mixed using a plate agitator. At the end of the 2 hour GloSensor™ incubation, add 10 μL of the CO2-independent media containing agonist, EC20 acetylcholine and isoproterenol to the cell plate. Cell plate was then incubated for 10 minutes at room temperature, and then read using an EnVision plate reader (Perkin Elmer).
Data was exported from the EnVision plate reader. The percent effect for each well was determined using the mean values for the positive and negative controls on each plate for each read, specifically 100*(compound−negative control)/(positive control−negative control). Dose response curves were fitted to the compound percent effect data using a 4-parameter logistic fit model. Data was reported as EC50 and Emax, with the Emax as the maximum asymptote of the fitted dose response curve.
A general note: Cyclic AMP is a second messenger, typically raised through Gs and lowered through Gi signalling.

Turning to `Cc1cc(C)c2c(n1)CN(C(=O)C[C@H]1C[C@@H]1c1ccc3cncnc3c1)C2` (racemic) [Example 76, 1-(2,4-dimethyl-5,7-dihydro-6H-pyrrolo[3,4-b]pyridin-6-yl)-2-[trans-2-(quinazolin-7-yl)cyclopropyl]ethanone], the Emax turned out to be 45% and the midpoint of the response, the EC50, lay at 1400 nM.

For `Cc1cc(C)c2c(n1)CN(C(=O)C[C@H]1C[C@@H]1c1ccccc1)C2` (racemic) [Example 77, 1-(2,4-dimethyl-5,7-dihydro-6H-pyrrolo[3,4-b]pyridin-6-yl)-2-[trans-2-phenylcyclopropyl]ethanone], the Emax was found to be 176% and the 50% effective concentration (EC50) was determined as 2880 nM.

For `Cc1cc(C)c2c(n1)CN(C(=O)CC1CN(c3cccnc3)C1)C2C` (single isomer, unassigned) [Example 14, 2-[1-(Pyridin-3-yl)azetidin-3-yl]-1-(2,4,5-trimethyl-5,7-dihydro-6H-pyrrolo[3,4-b]pyridin-6-yl)ethanone], the “M4 glosensor EC50 Mean Asymptote Maximum (%)” value is 62.5% and the EC50 came to 9080 nM.

Turning to `Cc1cc(C)c2c(n1)CN(C(=O)CC1CN(c3cccnc3)C1)C2C` (single isomer, unassigned) [Example 15, 2-[1-(Pyridin-3-yl)azetidin-3-yl]-1-(2,4,5-trimethyl-5,7-dihydro-6H-pyrrolo[3,4-b]pyridin-6-yl)ethanone], the “M4 glosensor EC50 Mean Asymptote Maximum (%)” value is recorded as 106% and the EC50 is 28 nM.

For the molecule `Cc1nc2c(c(C)c1C)CN(C(=O)C[C@@H]1C[C@H]1c1cccnc1)C2` (single isomer, unassigned) [Example 37, 2-[trans-2-(pyridin-3-yl)cyclopropyl]-1-(2,3,4-trimethyl-5,7-dihydro-6H-pyrrolo[3,4-b]pyridin-6-yl)ethanone], the “M4 glosensor EC50 Mean Asymptote Maximum (%)” value was 85.8% and a half-maximal response (EC50) required 1790 nM.

Consider `Cc1nc2c(c(C)c1C)CN(C(=O)C[C@@H]1C[C@H]1c1cccnc1)C2` (single isomer, unassigned) [Example 38, 2-[trans-2-(pyridin-3-yl)cyclopropyl]-1-(2,3,4-trimethyl-5,7-dihydro-6H-pyrrolo[3,4-b]pyridin-6-yl)ethanone], for which the “M4 glosensor EC50 Mean Asymptote Maximum (%)” value worked out at 111% and the EC50 amounted to 15.9 nM.

For the molecule `Cc1nc2c(c(C)c1Cl)CN(C(=O)C[C@@H]1C[C@H]1c1cncnc1)C2` (single isomer, unassigned) [Example 51, 1-(3-chloro-2,4-dimethyl-5,7-dihydro-6H-pyrrolo[3,4-b]pyridin-6-yl)-2-[trans-2-(pyrimidin-5-yl)cyclopropyl]ethanone], the Emax turned out to be 102% and the EC50 came to 4.75 nM.

For the molecule `Cc1nc2c(c(C)c1C)CN(C(=O)CC1CN(c3ncns3)C1)C2` [Example 5, 2-[1-(1,2,4-Thiadiazol-5-yl)azetidin-3-yl]-1-(2,3,4-trimethyl-5,7-dihydro-6H-pyrrolo[3,4-b]pyridin-6-yl)ethanone], the Emax was found to be 98.2% and a half-maximal response (EC50) required 8.88 nM.

Regarding `Cc1cc(C(F)F)nc2c1CN(C(=O)CC1CN(c3ccnc(C(F)(F)F)c3)C1)C2` [Example 6, 1-[2-(Difluoromethyl)-4-methyl-5,7-dihydro-6H-pyrrolo[3,4-b]pyridin-6-yl]-2-{1-[2-(trifluoromethyl)pyridin-4-yl]azetidin-3-yl}ethanone], the Emax was found to be 92.4% and the half-maximal effective concentration (EC50) worked out at 9.75 nM.

As to `COCc1cc(C)c2c(n1)CN(C(=O)CC1CN(c3ccnc(C(F)(F)F)c3)C1)C2` [Example 7, 1-[2-(methoxymethyl)-4-methyl-5,7-dihydro-6H-pyrrolo[3,4-b]pyridin-6-yl]-2-{1-[2-(trifluoromethyl)pyridin-4-yl]azetidin-3-yl}ethanone], the Emax was 99.8% and the EC50 worked out at 17.4 nM.

Consider `COCc1cc(C)c2c(n1)CN(C(=O)CC1CN(c3ccnc(OC(F)F)c3)C1)C2` [Example 8, 2-{1-[2-(Difluoromethoxy)pyridin-4-yl]azetidin-3-yl}-1-[2-(methoxymethyl)-4-methyl-5,7-dihydro-6H-pyrrolo[3,4-b]pyridin-6-yl]ethanone], for which the Emax was 99.1% and the concentration giving a half-maximal response (EC50) is 22.7 nM.

As to `Cc1cc(CO)nc2c1CN(C(=O)CC1CN(c3cccnc3)C1)C2` [Example 9, 1-[2-(Hydroxymethyl)-4-methyl-5,7-dihydro-6H-pyrrolo[3,4-b]pyridin-6-yl]-2-[1-(pyridin-3-yl)azetidin-3-yl]ethanone], the Emax is 86.5% and the EC50 is 17.2 nM.

For `Cc1c(C(F)F)nc2c(c1C)CN(C(=O)CC1CN(c3ccnc(OC(F)F)c3)C1)C2` [Example 10, 2-{1-[2-(Difluoromethoxy)pyridin-4-yl]azetidin-3-yl}-1-[2-(difluoromethyl)-3,4-dimethyl-5,7-dihydro-6H-pyrrolo[3,4-b]pyridin-6-yl]ethanone], the Emax was 99.5% and it took 28.9 nM to reach a half-maximal effect (EC50).

For the molecule `Cc1nc2c(c(C)c1Cl)CN(C(=O)CC1CN(c3ccnc(C(F)F)c3)C1)C2` [Example 12, 1-(3-Chloro-2,4-dimethyl-5,7-dihydro-6H-pyrrolo[3,4-b]pyridin-6-yl)-2-{1-[2-(difluoromethyl)pyridin-4-yl]azetidin-3-yl}ethanone], the Emax was determined as 119% and the EC50 is 7.1 nM.

Regarding `Cc1nc2c(c(C)c1Cl)CN(C(=O)CC1CN(c3cccnc3)C1)C2` [Example 13, 1-(3-Chloro-2,4-dimethyl-5,7-dihydro-6H-pyrrolo[3,4-b]pyridin-6-yl)-2-[1-(pyridin-3-yl)azetidin-3-yl]ethanone], the Emax was found to be 101% and the response was half-maximal at 2.04 nM (EC50).

With `Cc1ccc([C@@H]2C[C@H]2CC(=O)N2Cc3nc(C)cc(C)c3C2)cn1` [Example 16, 1-(2,4-Dimethyl-5,7-dihydro-6H-pyrrolo[3,4-b]pyridin-6-yl)-2-[(1S,2R)-2-(6-methylpyridin-3-yl)cyclopropyl]ethanone], the half-maximal effective concentration (EC50) is more than 10000 nM.

For `Cc1ccc([C@H]2C[C@@H]2CC(=O)N2Cc3nc(C)cc(C)c3C2)cn1` [Example 17, 1-(2,4-Dimethyl-5,7-dihydro-6H-pyrrolo[3,4-b]pyridin-6-yl)-2-[(1R,2S)-2-(6-methylpyridin-3-yl)cyclopropyl]ethanone], the Emax is 107% and a half-maximal response (EC50) required 71.9 nM.

Consider `Cc1ccc([C@H]2C[C@@H]2CC(=O)N2Cc3nc(C(F)F)cc(C)c3C2)cn1` [Example 18, 1-[2-(difluoromethyl)-4-methyl-5,7-dihydro-6H-pyrrolo[3,4-b]pyridin-6-yl]-2-[(1R,2S)-2-(6-methylpyridin-3-yl)cyclopropyl]ethanone], for which the Emax came out at 89% and the 50% effective concentration (EC50) was 37.7 nM.

For the molecule `COc1cc(C)c2c(n1)CN(C(=O)CC1CN(c3cccnc3)C1)C2` [Example 21, 1-(2-methoxy-4-methyl-5,7-dihydro-6H-pyrrolo[3,4-b]pyridin-6-yl)-2-[1-(pyridin-3-yl)azetidin-3-yl]ethanone], the Emax turned out to be 86.6% and the response was half-maximal at 23.9 nM (EC50).

With `COc1nc2c(c(C)c1Cl)CN(C(=O)CC1CN(c3cccnc3)C1)C2` [Example 22, 1-(3-chloro-2-methoxy-4-methyl-5,7-dihydro-6H-pyrrolo[3,4-b]pyridin-6-yl)-2-[1-(pyridin-3-yl)azetidin-3-yl]ethanone], the Emax is 109% and the response was half-maximal at 4.82 nM (EC50).

With `Cc1nc2c(c(C)c1C)CN(C(=O)CC1CN(c3cccnc3)C1)C2` [Example 23, 2-[1-(pyridin-3-yl)azetidin-3-yl]-1-(2,3,4-trimethyl-5,7-dihydro-6H-pyrrolo[3,4-b]pyridin-6-yl)ethanone], the Emax came to 92.2% and the half-maximal effective concentration (EC50) came out at 6.23 nM.

`Cc1cc(CO)nc2c1CN(C(=O)CC1CN(c3ccncn3)C1)C2` [Example 24, 1-[2-(hydroxymethyl)-4-methyl-5,7-dihydro-6H-pyrrolo[3,4-b]pyridin-6-yl]-2-[1-(pyrimidin-4-yl)azetidin-3-yl]ethanone]: the Emax came to 93.8% and the 50% effective concentration (EC50) amounted to 31 nM.

Broadly, the EC50 is the concentration giving half of the maximal effect. A lower EC50 goes with an effect from little substance.
